Source: US9072750B2, “Use of prostaglandins F2Alpha and analogues for the healing of corneal and conjunctival lesions” (priority 2009, dated 2015)

Key:
[1] = system: human corneal epithelial (HCE) cells; experiment: Scraping wound closure assay on human corneal epithelial cell monolayer; type: cell-based; settings: 24 h post scraping
Procedure: Brief description of the protocol: human corneal epithelial (HCE) cells (100 000 cells per well) were plated in 6-well plates and cultured until confluence. At confluence the cell monolayer was scraped with a yellow tip, the medium removed and incubated for 30 min with 1/10 dilutions of the different test articles (PBS (phosphate buffer solution), Xalatan® (aqueous solution of latanoprost at 0.005%), 0.02% BAK (benzalkonium chloride aqueous solution), and the Latanoprost Emulsion of the invention (with 0.005% latanoprost). Following the treatment, test article dilutions were removed and replaced by fresh culture medium. The scraping closure was assessed 2 and 24 h post treatment. Immunohistology of proliferation marker (Ki67) was also performed on cells cultured for 24 h post scraping.

Sprague-Dawley rats = experiment: Corneal scraping (deshepithelization) wound healing model in the rat, repeated instillations; type: in vivo
Procedure: Brief description of the protocol: 16 male Sprague-Dawley rats weighting 100 to 125 g were randomly assigned to 4 groups (4 rats per group (Gp)): Gp1, Phosphate buffer solution (PBS); Gp2, 0.02% benzalkonium chloride (BAK); Gp3, Xalatan®; Gp4, Latanoprost Emulsion. Following general and local anesthesia with ketamine/xylazine and topical Oxybucaïne, respectively, the upper part of the right eye cornea of each rat was scraped with a surgical scalpel following an application of 50 μl of 50% ethanol solution. The upper corneal and limbal epithelia were removed (at day D0). One drop of Tobrex was instilled immediately after the scraping. 2 and 5 hours post scraping one drop of the different test articles were applied onto the cornea of the right eye. These latter instillations were repeated every day for 4 days, and corneal evaluation with an in vivo confocal microscope (IVCM-HRT) was performed on day 4 after the last instillation. At the end of the experimental procedure (the total duration of the treatment is 5 days; from day D0 to D4), the animals were sacrificed and the eyes harvested to characterize the histological organisation of the treated cornea.

- in vivo confocal microscopy (IVCM) of superficial epithelium: scar tissue / hypereflectivity (Sprague-Dawley rats; rat, in vivo): scar tissue (hypereflectivity)
Substance: benzalkonium chloride [0.02% BAK solution]
- closure of the cleft (scraping closure), cell survival and migration ([1]; 1/10 dilutions (FIGS. 7 & 8)): no or only little closure
- % of wound closure ([1]; 30 min incubation with 1/10 dilutions (FIG. 9)): 8%
- corneal opacity / scarification of the cornea (Sprague-Dawley rats; day 4 after scraping, repeated instillations, right eye (FIG. 1)): scarification of the cornea was dramatic
